Measurements reported in ChEMBL document CHEMBL3430912, “GSK Tres Cantos Anti-Kinetoplastid Screening (TCAKS) Data”.

Legend:
Leishmania donovani [1] = experiment: (§1) GSK_TCAKS: pIC50 Leishmania donovani Imaging: Infected Macrophages. Assay plates (384-well) were prepared by adding 250nL of compound to each well. For single shot assay, the final compound concentration was 5 uM. […] Automated image analysis was performed with a script developed on Acapella High Content Imaging and Analysis Software (PerkinElmer). Output: Percent of infected macrophage cells were reported for each well.; format: functional, organism-based, Homo sapiens; details: THP-1
Trypanosoma cruzi [2] = experiment: GSK_TCAKS: pIC50 Trypanosoma cruzi viability assay using beta-GAL activity. This assay was run at single shot at 5uM compound concentration per well. The biological reagents consisted of NIH-3T3 host cells and trypomastigotes parasitic cells; both cell types were set to a 3.3 * 10^5 cells/mL dilution in assay DMEM by means of a CASY cell counter device using a 60um capillary. 6 uL of the mixture were dispensed per well (about 1 * 10^3 host-cells and 1 * 10^3 parasites) with a Multidrop Combi dispenser. […] In all wells, the percentage of DMSO never exceeded 0.5%. Plates incubated for four days at 37C, 5% CO2. The substrate used for the assay fluorescence intensity (FLINT) readout was resorufin-beta-D-galactopiranoside (Sigma-Aldrich) at 5uM per well. It was diluted in PBS supplemented with the soft detergent Igepal (Fluka).; format: functional, organism-based, Mus musculus; details: Tulahuen, NIH3T3
Trypanosoma cruzi [3] = experiment: (§2) GSK_TCAKS: pIC50 Trypanosoma cruzi Imaging: Infected Cells. […] Cells were then washed once with PBS before infection. T. cruzi trypomastigotes, collected at days 5 to 8 after infection from LLC-MK2 parasite infected cultures, were allowed to swim out for 4h at 37C from a centrifuged pellet (2,500 rpm/10 min/room temperature). Trypomastigotes were then collected and counted in a CASY Cell Counter. Trypomastigotes, in supplemented DMEM, were added to H9c2 cultures in a multiplicity of infection of 1 and incubated for 18 h. Cells were washed once with PBS before incubation of the infected H9c2 monolayer with trypsin (Life-Technologies) to detach cells from the flask. Cells were counted in a CASY Cell Counter using a 150 um capillary and their density set at 5 * 10^4 cells per mL in supplemented assay DMEM. Infected H9c2 were dispensed into 384-well poly-lysine coated assay plates at 50uL per well using a Multidrop Combi dispenser. After seeding them, the plates were incubated at 37C, 5% CO2 for 72h. Cultures were then fixed and stained by addition of 50 uL of a solution containing 8% formaldehyde and 4 uM DRAQ5 DNA dye (BioStatus, UK) per well. […] Five images were collected per well for reliable statistical analysis. Automated image analysis was performed with a script developed on Acapella High Content Imaging and Analysis Software (PerkinElmer). Output: percentage of infected cells per well as a second infection marker.; format: functional, organism-based, Rattus norvegicus; details: H9c2, 4 h
[4] = system: Trypanosoma brucei brucei; experiment: GSK_TCAKS: pIC50 Trypanosoma brucei viability assay using luminiscence. Assay plates (1536-well) were prepared. T. brucei cultures were harvested and counted in a CASY cell counter. A parasite suspension was prepared at a final concentration of 5 * 10^4 cells/mL in complete HMI9 medium and 6uL was dispensed to all wells containing compounds using a Multidrop Combi dispenser. 6uL of HMI9 media with 0.4% DMSO were dispensed to control columns. Plates were incubated for 24 h at 37C, 5% CO2 then tempered for 10 min at room temperature. ATP content was quantified by adding 4 uL of CellTiter-Glo Reagent (Promega) according to the manufacturer's instructions. Luminescence was measured using a ViewLux.; format: functional, organism-based; details: Lister 427, CASY
[5] = GSK_TCAKS: pIC50 HepG2 human cell line viability assay using luminiscence. […] Seeding density was checked to ensure that new mono-layers were not more than 50% confluent at the time of harvesting. Cell suspension was added to 500 mL of the same medium at a final density of 1.2 * 10^5 cells/mL. This cell suspension was dispensed (25 uL, 3000 cells per well) into 384-well clear-bottom plates using a Multidrop Combi dispenser. Prior to addition of the cell suspension, the screening compounds (250 nL) were pre-dispensed into the plates with an Echo liquid handler. Plates were incubated for 48 h at 37C, 5% CO2. After incubation, plates equilibrated at room temperature for 30 min before proceeding to develop the luminescent signal. The signal developer, CellTiter-Glo Reagent, was allowed to equilibrate at room temperature for 30 min and added to the plates (25uL per well) using a Multidrop Combi dispenser. Plates were left for 10 min at room temperature for stabilization and then read using a ViewLux.; format: toxicity, cell-based
[6] = biological target: Sterol 14-alpha demethylase (Trypanosoma cruzi (strain CL Brener), UniProt Q7Z1V1); experiment: GSK_TCAKS: pIC50 CYP51 from Trypanosoma cruzi.; format: functional
Chain of Sterol 14-alpha demethylase (Q7Z1V1 whole entry): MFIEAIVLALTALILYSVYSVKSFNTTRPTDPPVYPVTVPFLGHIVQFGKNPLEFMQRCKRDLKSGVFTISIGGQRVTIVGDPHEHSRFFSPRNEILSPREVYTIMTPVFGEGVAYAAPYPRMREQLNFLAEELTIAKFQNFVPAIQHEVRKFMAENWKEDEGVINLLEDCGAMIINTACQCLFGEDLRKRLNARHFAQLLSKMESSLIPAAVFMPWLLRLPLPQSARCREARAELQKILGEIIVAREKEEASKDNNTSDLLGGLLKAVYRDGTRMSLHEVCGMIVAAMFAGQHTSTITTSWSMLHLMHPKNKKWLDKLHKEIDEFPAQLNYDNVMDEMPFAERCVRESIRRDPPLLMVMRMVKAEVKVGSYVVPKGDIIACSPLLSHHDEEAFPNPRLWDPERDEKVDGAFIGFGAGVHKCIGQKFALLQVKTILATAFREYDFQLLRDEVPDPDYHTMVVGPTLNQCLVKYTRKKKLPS

Trypanosoma cruzi [7] = experiment: as §2, with “H2C9” for “Trypanosoma cruzi”, “H9c2 Host Cardiomyocytes.” for “Infected Cells.”, “Number” for “percentage”, “H9c2 Host Cardiomyocytes nuclei to determine drug-related cytotoxicity.” for “infected cells per well as a second infection marker.”; format: functional, organism-based, Rattus norvegicus; details: H9c2, 4 h
Leishmania donovani [8] = experiment: as §1, with “THP-1 Host” for “Infected”, “THP-1 cell count” for “Percent of infected macrophage cells”; format: functional, organism-based, Homo sapiens
[9] = system: Trypanosoma brucei brucei; experiment: GSK_TCAKS: pIC50 Trypanosoma brucei viability assay using fluorescence intensity. Assay plates (1536-well) were prepared by dispensing 25nL of compound solution per well using an Echo acoustic dispenser (Labcyte).; format: functional, organism-based; details: Lister 427, 2 h
Leishmania donovani [10] = experiment: as §1, with “Amastigotes/Macrophages.” for “Infected Macrophages.”, “Average number” for “Percent”, “amastigotes per” for “infected”, “cell” for “cells”; format: functional, organism-based, Homo sapiens; details: THP-1
Trypanosoma cruzi [11] = experiment: GSK_TCAKS: pIC50 Trypanosoma cruzi Imaging: Amastigotes/Cell. […] Cells were then washed once with PBS before infection. T. cruzi trypomastigotes, collected at days 5 to 8 after infection from LLC-MK2 parasite infected cultures, were allowed to swim out for 4h at 37C from a centrifuged pellet (2,500 rpm/10 min/room temperature). Trypomastigotes were then collected and counted in a CASY Cell Counter. Trypomastigotes, in supplemented DMEM, were added to H9c2 cultures in a multiplicity of infection of 1 and incubated for 18 h. Cells were washed once with PBS before incubation of the infected H9c2 monolayer with trypsin (Life-Technologies) to detach cells from the flask. Cells were counted in a CASY Cell Counter using a 150 um capillary and their density set at 5 * 10^4 cells per mL in supplemented assay DMEM. Infected H9c2 were dispensed into 384-well poly-lysine coated assay plates at 50uL per well using a Multidrop Combi dispenser. After seeding them, the plates were incubated at 37C, 5% CO2 for 72h. Cultures were then fixed and stained by addition of 50 uL of a solution containing 8% formaldehyde and 4 uM DRAQ5 DNA dye (BioStatus, UK) per well. […] Five images were collected per well for reliable statistical analysis. Automated image analysis was performed with a script developed on Acapella High Content Imaging and Analysis Software (PerkinElmer). Output: number of amastigotes per cell as infection level measurement.; format: functional, organism-based, Rattus norvegicus; details: H9c2, 4 h
Leishmania donovani [12] = experiment: GSK_TCAKS: pIC50 Leishmania donovani viability assay using fluorescence intensity. Assay plates (1536-well) were prepared by adding 30nL per well of compound. For single shot assay, the final compound concentration was 5uM. […] Briefly, eGFP LdBOB axenic amastigotes were harvested, fixed and counted in a CASY cell counter (Roche-Applied Science). A final concentration of 1.5 * 10^5 cells per well were prepared in amastigote media containing 500 U/mL penicillin/streptomycin (Invitrogen) and 6uL was dispensed to each experimental well using a Multidrop Combi dispenser (Thermo Scientific). 6uL of assay media was dispensed to control columns used as reference for 100% compound response. Following incubation for 72 h at 37C, 5% CO2, 2 uL of resazurin was added to each well at a final concentration of 0.5 mM in phosphate buffered saline (PBS) with IGEPAL (Sigma-Aldrich), 0.05% (v/v).; format: functional, organism-based

| Structure (SMILES) | IC50 (Leishmania donovani [1]) [µM] | IC50 (Trypanosoma cruzi [2]) [µM] | IC50 (Trypanosoma cruzi [3]) [µM] | IC50 [4] [µM] | IC50 at 48 h [5] [µM] | IC50 [6] [µM] | IC50 (Trypanosoma cruzi [7]) [µM] | IC50 (Leishmania donovani [8]) [µM] | IC50 [9] [µM] | IC50 (Leishmania donovani [10]) [µM] | IC50 (Trypanosoma cruzi [11]) [µM] | IC50 (Leishmania donovani [12]) [µM] |
| --- | --- | --- | --- | --- | --- | --- | --- | --- | --- | --- | --- | --- |
| Oc1cc(CSc2ccc(Cl)cc2)nc(-c2ccccn2)n1 | 5.01 | 1 | 1.58 | 1 | > 100 | 63.1 | 3.16 | 3.98 | 0.794 | 2 | 0.794 | 1.58 |
| CCc1c(C)nc(-n2nc(C)cc2NC(=O)COc2ccccc2F)[nH]c1=O | 7.94 | 0.631 | 0.631 | 0.2 | > 100 | > 100 | 2.51 | 3.98 | 0.158 | 5.01 | 0.158 | 0.126 |
| COc1ccc(C(=O)[C@H]2C[C@@H]2CN(Cc2ccccn2)Cc2ccccn2)cc1 | 1.58 | 1.58 | 1.58 | 15.8 | > 100 | 39.8 | 25.1 | > 50.1 | 6.31 | 1.26 | 1 | 7.94 |
| CCS(=O)(=O)c1cccc(C(=O)Nc2nc(-c3ccccn3)cs2)c1 | 3.98 | 1.58 | 2.51 | 0.631 | 25.1 | 63.1 | 3.98 | 20 | 0.501 | 3.16 | 1.58 | 1.26 |
| COc1cc2c(cc1OC)[C@H]1[C@@H](C)c3ccc(OC)c(OC)c3CN1CC2 | 20 | 25.1 | > 50.1 | > 39.8 | > 100 | 79.4 | > 50.1 | > 50.1 | 25.1 | 15.8 | 20 | 2.51 |
| CCc1cccc(-n2nc(OCC(=O)NC3CCCC3)c3cccnc32)c1 | 1 | > 50.1 | > 50.1 | > 39.8 | > 100 | > 100 | > 50.1 | > 50.1 | > 39.8 | 1.26 | > 50.1 | 2.51 |
| O=[N+]([O-])c1ccc(-c2nnn(-c3cccnc3)n2)o1 | > 50.1 | 0.251 | > 50.1 | 0.501 | > 100 | 3.98 | 6.31 | 12.6 | 0.316 | 50.1 | 0.0631 | 15.8 |
| O=[N+]([O-])c1ccc(-c2nnn(-c3ccc(Cl)cc3)n2)o1 | > 50.1 | 0.251 | 0.794 | 1 | > 100 | > 100 | 10 | > 50.1 | 0.316 | > 50.1 | 0.0794 | 6.31 |
| COCc1cc(Nc2ccc(Cl)cc2)nc(-c2ccccn2)n1 | 1.26 | 1.58 | 5.01 | > 39.8 | 12.6 | > 100 | 1.26 | 20 | 20 | 0.794 | 2.51 | 2.51 |
| COCc1cc(Nc2ccccc2)nc(-c2ccccn2)n1 | 7.94 | 5.01 | 25.1 | > 39.8 | 100 | > 100 | 3.98 | > 50.1 | > 39.8 | 5.01 | 12.6 | 7.94 |
| CNC(=O)Oc1ccc(C(=O)NCc2ccccc2)cc1OC(=O)NC | > 50.1 | 31.6 | 39.8 | 0.398 | > 100 | > 100 | > 50.1 | > 50.1 | 0.126 | > 50.1 | 39.8 | > 50.1 |
| CC(C)(C)Nc1nc(Nc2ccc3c(c2)CS(=O)(=O)C3)nc2[nH]ccc12 | 6.31 | 1 | 31.6 | 5.01 | 31.6 | 25.1 | 1 | 20 | 0.794 | 5.01 | 20 | 7.94 |
| COc1ccc(CN2C(=O)C(O)(CC(=O)c3ccncc3)c3cc(Br)ccc32)cc1OC (centres undefined) | 25.1 | 2.51 | 25.1 | 0.631 | 39.8 | 0.501 | 2 | 39.8 | 0.631 | 20 | 12.6 | 39.8 |
| CNC(=O)C1Cc2ccccc2N1C(=O)Cc1ccc(F)cc1 (centres undefined) | > 50.1 | > 50.1 | > 50.1 | 0.251 | > 100 | > 100 | > 50.1 | > 50.1 | 0.251 | > 50.1 | > 50.1 | – |
| CC(C)CC(=O)Nc1cc(C2CC2)nn1-c1nc2c(c(=O)[nH]1)CCCC2 | 7.94 | 0.794 | 0.501 | 0.2 | > 100 | > 100 | 2.51 | 5.01 | 0.2 | 5.01 | 0.126 | – |
| Cc1ccc(NC(C)C(=O)Nc2ccc(C#N)cc2)cc1S(=O)(=O)N1CCCCC1 (centres undefined) | 10 | 10 | 7.94 | 10 | 79.4 | 15.8 | > 50.1 | 50.1 | 7.94 | 5.01 | 7.94 | 0.794 |
| O=C(Nc1ccc(C(F)(F)F)cc1)Nc1cccc([N+](=O)[O-])c1 | 2.51 | 1 | 1.26 | 2 | 10 | 6.31 | 5.01 | 6.31 | 2 | 2 | 0.794 | 7.94 |
| CC(C)(C)c1cc(NC2CC2)nc(-c2ccccn2)n1 | 2.51 | 1.26 | 1.58 | 2.51 | > 100 | > 100 | 0.316 | 25.1 | 7.94 | 1.58 | 1.26 | 1.58 |
